Data: patent US20110257233A1, “BENZOISOTHIAZOLONES AS INHIBITORS OF PHOSPHOMANNOSE ISOMERASE” (Sanford-Burnham Medical Research Institute, priority 2010, published 2011)
In brackets after ≈: the same amount, converted by molar mass. Like-named read-outs stand apart in the source and are kept apart here.

Columns and labels:
[1] = test system: Candida albicans (ATCC 10231); experiment: Microbial in vitro assay 640000; type: cell-based
Protocol: The methods employed in this study were adapted from the scientific literature to maximize reliability and reproducibility. The reference standards were run as an integral part of each assay to ensure the validity of the results obtained. The assays were performed under conditions described below. The literature reference(s) for each assay are also provided as follows: Enza Di Modugno, Isabelle […]. […] Antimicrobial Agents Chemotherapy 3: 40-48; […]., Pursiano, […]. and Price, K. E. (1973) In Vitro Activity of the Tribactam GV 104326 against Gram-Positive, Gram-Negative, and Anaerobic Bacteria. Antimicrobial Agents and Chemotherapy, 38: 2362-2368, 1994; Enza Di Modugno, Isabelle […]. […] Antimicrobial Agents Chemotherapy 3: 40-48; and […]., Pursiano, […]. and Price, K. E. (1973) In vitro antibacterial activity of SM-7338, a carbapenem antibiotic with stability to dehydropeptidase I Antimicrobial Agents, Chemotherapy, 33 #2:215-222, 1989. 640000 Candida albicans (ATCC 10231); Culture Medium: Fluid Sabouraud Medium; […] Incubation Time/Temp: 20 hours @ 37° C.; […] Quantitation Method: Turbidity Measurement.

[2] = test system: Cryptococcus neoformans (ATCC 24067); experiment: Microbial in vitro assay 647000; type: cell-based
Protocol: The methods employed in this study were adapted from the scientific literature to maximize reliability and reproducibility. The reference standards were run as an integral part of each assay to ensure the validity of the results obtained. The assays were performed under conditions described below. The literature reference(s) for each assay are also provided as follows: Enza Di Modugno, Isabelle […]. […] Antimicrobial Agents Chemotherapy 3: 40-48; […]., Pursiano, […]. and Price, K. E. (1973) In Vitro Activity of the Tribactam GV 104326 against Gram-Positive, Gram-Negative, and Anaerobic Bacteria. Antimicrobial Agents and Chemotherapy, 38: 2362-2368, 1994; Enza Di Modugno, Isabelle […]. […] Antimicrobial Agents Chemotherapy 3: 40-48; and […]., Pursiano, […]. and Price, K. E. (1973) In vitro antibacterial activity of SM-7338, a carbapenem antibiotic with stability to dehydropeptidase I Antimicrobial Agents, Chemotherapy, 33 #2:215-222, 1989. […] Incubation Time/Temp: 2 days @37° C.; […] Time of Assessment: 2 days; Quantitation Method: Turbidity Measurement

[3] = molecular target: T1, phosphomannose isomerase (PMI) (Homo sapiens, UniProt P34949); experiment: PMI enzyme inhibition assay; type: biochemical
T1 sequence (P34949 1-423): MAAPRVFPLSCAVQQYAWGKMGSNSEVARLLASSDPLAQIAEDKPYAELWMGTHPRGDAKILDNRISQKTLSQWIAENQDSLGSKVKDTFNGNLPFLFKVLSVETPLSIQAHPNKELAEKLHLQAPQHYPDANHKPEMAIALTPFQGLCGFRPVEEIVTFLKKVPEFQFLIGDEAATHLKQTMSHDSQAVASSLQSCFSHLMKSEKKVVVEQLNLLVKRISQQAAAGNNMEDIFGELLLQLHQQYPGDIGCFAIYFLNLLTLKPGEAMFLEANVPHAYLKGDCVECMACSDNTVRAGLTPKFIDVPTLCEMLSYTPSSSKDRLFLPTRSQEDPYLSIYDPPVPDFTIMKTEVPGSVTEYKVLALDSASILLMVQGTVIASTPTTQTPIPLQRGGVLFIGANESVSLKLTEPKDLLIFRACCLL

[4] = molecular target: T2, phosphomannomutase 2 (PMM) (Homo sapiens, UniProt O15305); experiment: PMM enzyme inhibition assay; type: biochemical; details: for IC50: mean of at least three determinations
T2 sequence (O15305 1-246): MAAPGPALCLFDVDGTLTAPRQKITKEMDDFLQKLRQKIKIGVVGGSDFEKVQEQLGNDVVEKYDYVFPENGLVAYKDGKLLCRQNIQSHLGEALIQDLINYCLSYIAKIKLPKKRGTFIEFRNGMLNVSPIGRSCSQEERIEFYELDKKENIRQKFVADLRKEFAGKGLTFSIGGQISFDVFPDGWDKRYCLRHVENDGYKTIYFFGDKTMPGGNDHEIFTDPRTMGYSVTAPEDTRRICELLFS

[5] = test system: protein glycosylation (mannose incorporated in proteins); experiment: Cellular assay: 3H-mannose incorporated in proteins vs glycolysis; type: cell-based
Protocol: A cellular assay was developed and utilized to provide proof-of-concept for the potential of the optimized PMI inhibitors as CDG therapeutics. […] Briefly. cells were preincubated with inhibitors and labeled with 3H-Mannose and 35S-Met/Cys. After washing and lysis, 3H- and 35S amounts were determined in the proteins.

[6] = Plasma stability, human; type: in vitro ADME
From the text: (§1) ADME (absorption, distribution, metabolism, elimination) provides an efficient means of discovering potential issues with respect to bioavailability and the potential for in vivo efficiency. The microsomal stability assay measures a compound's potential to be metabolized by the liver and can also identify metabolic liabilities. The plasma stability assay gives essential information on whether a compound will be degraded in plasma. Finally, the Parallel Artificial Membrane Permeability Assay (PAMPA) measures compound diffusion rates through an artificial membrane to give valuable information on a compounds potential for intestinal absorption and tissue and cell permeability. [table]

[7] = Microsomal stability, mouse; type: in vitro ADME; details: mouse liver microsomes
From the text: as §1

[8] = Parallel Artificial Membrane Permeability Assay (PAMPA); type: in vitro ADME; details: diffusion through a lipid membrane
From the text: as §1

[9] = Microsomal stability, human; type: in vitro ADME; details: human liver microsomes
From the text: as §1

[10] = Plasma stability, mouse; type: in vitro ADME
From the text: as §1

[11] = test system: Pseudomonas aeruginosa (ATCC 27853); experiment: Microbial in vitro assay 614030; type: cell-based; details: reference standard run with the assay
Protocol: The methods employed in this study were adapted from the scientific literature to maximize reliability and reproducibility. The reference standards were run as an integral part of each assay to ensure the validity of the results obtained. The assays were performed under conditions described below. The literature reference(s) for each assay are also provided as follows: Enza Di Modugno, Isabelle […]. […] Antimicrobial Agents Chemotherapy 3: 40-48; […]., Pursiano, […]. and Price, K. E. (1973) In Vitro Activity of the Tribactam GV 104326 against Gram-Positive, Gram-Negative, and Anaerobic Bacteria. Antimicrobial Agents and Chemotherapy, 38: 2362-2368, 1994; Enza Di Modugno, Isabelle […]. […] Antimicrobial Agents Chemotherapy 3: 40-48; and […]., Pursiano, […]. and Price, K. E. (1973) In vitro antibacterial activity of SM-7338, a carbapenem antibiotic with stability to dehydropeptidase I Antimicrobial Agents, Chemotherapy, 33 #2:215-222, 1989.

[12] = reference standard run with the assay
[13] = mean of at least three determinations

## C[C@@H]1[C@H](O)[C@@H](C)/C=C/C=C/C=C/C=C/C=C/C=C/C=C/[C@H](O[C@@H]2O[C@H](C)[C@@H](O)[C@H](N)[C@@H]2O)C[C@@H]2O[C@](O)(C[C@@H](O)C[C@@H](O)[C@H](O)CC[C@@H](O)C[C@@H](O)CC(=O)O[C@H]1C)C[C@H](O)[C@H]2C(=O)O [Amphotericin B Solubilized, reference compound]
[1]; [12]
  CONCURRENT (reference compound data): 0.1 µg/mL
[2]; [12]
  CONCURRENT (reference compound data): 0.1 µg/mL

## O=c1c2ccccc2sn1-c1ccccc1 [Compound 1, 2-Phenyl-2-hydrobenzo[d]isothiazol-3-one]
[3]
  IC50: 6.4 µM

## Cc1cccc(-n2sc3ccccc3c2=O)c1 [Compound 3, 2-(3-Methylphenyl)-2-hydrobenzo[d]isothiazol-3-one]
[3]; [13]
  IC50: 6 µM

## Cc1ccc(-n2sc3ccccc3c2=O)cc1 [Compound 4, 2-(4-Methylphenyl)-2-hydrobenzo[d]isothiazol-3-one]
[3]; [13]
  IC50: 3.6 µM

## O=c1c2ccccc2sn1-c1cccc(C(F)(F)F)c1 [Compound 5, 2-[3(Trifluoromethyl)phenyl]-2-hydrobenzo[d]isothiazol-3-one]
[3]; [13]
  IC50: 3.4 µM
[4]
  IC50: > 20 µM

## O=c1c2ccccc2sn1-c1cccc(Cl)c1 [Compound 7, 2(3-Chlorophenyl)-2-hydrobenzo[d]isothiazol-3-one]
[3]; [13]
  IC50: 4.8 µM

## COC(=O)c1cccc(-n2sc3ccccc3c2=O)c1 [Compound 9]
[3]; [13]
  IC50: 4.9 µM
[4]
  IC50: > 20 µM

## CCOC(=O)c1ccc(-n2sc3ccccc3c2=O)cc1 [Compound 10]
[3]; [13]
  IC50: 7.2 µM

## CN(C)c1ccc(-n2sc3ccccc3c2=O)cc1 [Compound 12, 2-[4-(Dimethylamino)phenyl]-2-hydrobenzo[d]isothiazol-3-one]
[3]; [13]
  IC50: 1.9 µM
[4]
  IC50: 13.3 µM
[5]; 50 μM
  fold increase in the amount of mannose incorporated in proteins vs glycolysis: 1.0 fold

## COc1cccc(-n2sc3ccccc3c2=O)c1 [Compound 15, 2-(3-Methoxyphenyl)-2-hydrobenzo[d]isothiazol-3-one]
[3]; [13]
  IC50: 3.7 µM
[4]
  IC50: > 20 µM

## Cc1ccccc1-n1sc2cc(F)ccc2c1=O [Compound 16, 6-Fluoro-2-o-tolylbenzo[d]isothiazol-3(2H)-one]
[6]
  Plasma Stability (% remaining after 1 hour): 49.7 % remaining
[7]
  Microsomal Stability (% remaining after 1 hour): 90.03 % remaining
[8]
  Permeability: Medium
[3]; [13]
  IC50: 2.9 µM
[9]
  Microsomal Stability (% remaining after 1 hour): 90 % remaining
[5]; 25.0 μM
  fold increase in the amount of mannose incorporated in proteins vs glycolysis: 2.8 fold
[5]; 50 μM
  fold increase in the amount of mannose incorporated in proteins vs glycolysis: 1.7 fold
[5]; 12.5 (head prints no unit)
  fold increase in the amount of mannose incorporated in proteins vs glycolysis: 2.7 fold
[10]
  Plasma Stability (% remaining after 1 hour): 117.5 % remaining

## Cc1ccc(C)c(-n2sc3cc(F)ccc3c2=O)c1 [Compound 17]
[3]; [13]
  IC50: 1.1 µM
[4]
  IC50: 7.3 µM

## COc1ccc(-n2sc3cc(F)ccc3c2=O)cc1 [Compound 18]
[4]
  IC50: 12.9 µM

## O=c1c2cc(F)ccc2sn1-c1ccccc1 [Compound 19, 5-Fluoro-2-phenylbenzo[d]isothiazol-3(2H)-one]
[3]; [13]
  IC50: 1.3 µM
[4]
  IC50: > 20 µM
[4]; tested up to 20 μM
  PMM inhibition: inactive
[1]; ATCC10231, Candida albicans, turbidity, read-out: minimal inhibitory concentration
  MIC: 3000 µg/mL (≈ 12.2 mM)
[2]; ATCC24067, Cryptococcus neoformans, turbidity, read-out: minimal inhibitory concentration
  MIC: 1000 µg/mL (≈ 4.08 mM)

## Cc1ccc(C)c(-n2sc3ccc(F)cc3c2=O)c1 [Compound 20]
[6]
  Plasma Stability (% remaining after 1 hour): 96.7 % remaining
[7]
  Microsomal Stability (% remaining after 1 hour): 85.04 % remaining
[8]
  Permeability: Medium
[3]; [13]
  IC50: 1.9 µM
[9]
  Microsomal Stability (% remaining after 1 hour): 100 % remaining
[4]
  IC50: > 20 µM
[5]; 25.0 μM
  fold increase in the amount of mannose incorporated in proteins vs glycolysis: 2.3 fold
[5]; 50 μM
  fold increase in the amount of mannose incorporated in proteins vs glycolysis: 3.2 fold
[5]; 12.5 (head prints no unit)
  fold increase in the amount of mannose incorporated in proteins vs glycolysis: 1.9 fold
[10]
  Plasma Stability (% remaining after 1 hour): 99.4 % remaining

## O=c1c2cc(F)ccc2sn1-c1ccc(F)cc1 [Compound 21, 5-Fluoro-2-(4-fluorophenyl)-2-hydrobenzo[d]isothiazol-3-one]
[6]
  Plasma Stability (% remaining after 1 hour): 0.0 % remaining
[7]
  Microsomal Stability (% remaining after 1 hour): 81.24 % remaining
[8]
  Permeability: High
[9]
  Microsomal Stability (% remaining after 1 hour): 24.93 % remaining
[4]
  IC50: > 20 µM
[10]
  Plasma Stability (% remaining after 1 hour): 71.4 % remaining

## COc1ccc(-n2sc3ccc(F)cc3c2=O)cc1 [Compound 22, 5-Fluoro-2-(4-methoxyphenyl)-2-hydrobenzo[d]isothiazol-3-one]
[6]
  Plasma Stability (% remaining after 1 hour): 107.0 % remaining
[7]
  Microsomal Stability (% remaining after 1 hour): 84.06 % remaining
[8]
  Permeability: Low
[9]
  Microsomal Stability (% remaining after 1 hour): 100 % remaining
[4]
  IC50: 9.1 µM
[10]
  Plasma Stability (% remaining after 1 hour): 96.3 % remaining

## O=c1c2cc(F)ccc2sn1-c1ccccc1F [Compound 23]
[6]
  Plasma Stability (% remaining after 1 hour): 35.7 % remaining
[7]
  Microsomal Stability (% remaining after 1 hour): 98.40 % remaining
[8]
  Permeability: Medium
[3]; [13]
  IC50: 4.3 µM
[9]
  Microsomal Stability (% remaining after 1 hour): 27.66 % remaining
[5]; 25.0 μM
  fold increase in the amount of mannose incorporated in proteins vs glycolysis: 0.7 fold
[5]; 50 μM
  fold increase in the amount of mannose incorporated in proteins vs glycolysis: 2.5 fold
[5]; 12.5 (head prints no unit)
  fold increase in the amount of mannose incorporated in proteins vs glycolysis: 9.1 fold
[10]
  Plasma Stability (% remaining after 1 hour): 106.7 % remaining

## O=c1c2cc(F)ccc2sn1-c1ccc(Cl)cc1 [Compound 24, 2-(4-Chlorophenyl)-5-fluoro-2-hydrobenzo[d]isothiazol-3-one]
[3]; [13]
  IC50: 1.8 µM

## Gentamicin
[11]
  CONCURRENT (reference compound data): 0.3 µg/mL
